Results as given in patent US20240425480A1, “NOVEL PYRIDINE DERIVATIVE COMPOUND AS RON INHIBITOR” (LG CHEM, LTD., priority 2021, published 2024).
pIC50: −log10 of the molar value.

Key:
[1] = target: cMET (Homo sapiens, UniProt P08581); assay: Inhibitory activity against MET (cMET), TR-FRET kinase assay; type: biochemical; conditions: TR-FRET enzyme assay
Method: In addition, in order to measure the enzyme activity inhibition for cMET, the evaluation was performed in the same manner as the enzyme activity inhibition measurement experiment for RON.
(§1) Specifically, the compound was prepared to a concentration of 1 mM in 100% DMSO and was diluted 10 times in a stepwise manner through 3-fold dilution. The compound (2 ul) diluted in a stepwise manner was added to a 96-well-plate containing 48 ul of a 1×kinase reaction buffer (50 mM HEPES (pH 7.4), 0.05% BSA, 0.005% Tween-20, 1 mM DTT, 0.5 mM MnCl2, 20 mM MgCl2).
The cMET protein was diluted to a concentration of 263 nM in a cMET storage buffer (50 mM Tris-HCl (pH 7.5), 150 mM NaCl, 0.05% Brij35, 1 mM DTT, 10% Glycerol), and then diluted again to a concentration of 2 nM in a 1×kinase reaction buffer. As a substrate cocktail, a MET-specific substrate mixed solution (5 uM TK peptide, 10 mM ATP) was prepared at a concentration 2 times the final reaction concentration.
(§2) Thereafter, a 384-well-plate was prepared, and 2.5 μl of each of the diluted compounds of Examples was added to a corresponding well of experimental group wells, and 2.5 μl of a 4% DMSO solution was dispensed into high control wells and low control wells.
(§3) Thereafter, 2.5 μL of 2 nM cMET was dispensed into each of the high control wells and the experimental group wells, and 2.5 μL of the 1× kinase reaction buffer was added to the low control wells, and all the wells were centrifuged at room temperature for 40 seconds at 1,000 RPM, and then incubated at room temperature for 20-30 minutes. Then, 5 μL of the substrate cocktail (2×) was dispensed into each well, and all the wells were centrifuged at room temperature for 40 seconds at 1,000 RPM, and then incubated at room temperature for 60 minutes. Thereafter, 5 μL of 90 mM EDTA was added to each well to terminate the reaction, and all the wells were then incubated again at room temperature for 5 minutes. Thereafter, 5 μL of a 4×phosphotyrosine antibody (Perkin Elmer) containing europium was added to each well, and all the wells were then incubated at room temperature for 60 minutes. After the incubation, the 384-well-plate was read with the Vison plate reader. In this case, the excitation wavelength was 340 nm, and the emission wavelength was 620 nm and 665 nm. The pe50 value of each compound of Examples was derived using the GraphPd Prism7 program.

[2] = target: RON (Homo sapiens, UniProt Q04912); assay: Inhibitory activity against RON, TR-FRET kinase assay; type: biochemical; conditions: TR-FRET enzyme assay
Sequence of RON (Q04912 25-1400, species assumed): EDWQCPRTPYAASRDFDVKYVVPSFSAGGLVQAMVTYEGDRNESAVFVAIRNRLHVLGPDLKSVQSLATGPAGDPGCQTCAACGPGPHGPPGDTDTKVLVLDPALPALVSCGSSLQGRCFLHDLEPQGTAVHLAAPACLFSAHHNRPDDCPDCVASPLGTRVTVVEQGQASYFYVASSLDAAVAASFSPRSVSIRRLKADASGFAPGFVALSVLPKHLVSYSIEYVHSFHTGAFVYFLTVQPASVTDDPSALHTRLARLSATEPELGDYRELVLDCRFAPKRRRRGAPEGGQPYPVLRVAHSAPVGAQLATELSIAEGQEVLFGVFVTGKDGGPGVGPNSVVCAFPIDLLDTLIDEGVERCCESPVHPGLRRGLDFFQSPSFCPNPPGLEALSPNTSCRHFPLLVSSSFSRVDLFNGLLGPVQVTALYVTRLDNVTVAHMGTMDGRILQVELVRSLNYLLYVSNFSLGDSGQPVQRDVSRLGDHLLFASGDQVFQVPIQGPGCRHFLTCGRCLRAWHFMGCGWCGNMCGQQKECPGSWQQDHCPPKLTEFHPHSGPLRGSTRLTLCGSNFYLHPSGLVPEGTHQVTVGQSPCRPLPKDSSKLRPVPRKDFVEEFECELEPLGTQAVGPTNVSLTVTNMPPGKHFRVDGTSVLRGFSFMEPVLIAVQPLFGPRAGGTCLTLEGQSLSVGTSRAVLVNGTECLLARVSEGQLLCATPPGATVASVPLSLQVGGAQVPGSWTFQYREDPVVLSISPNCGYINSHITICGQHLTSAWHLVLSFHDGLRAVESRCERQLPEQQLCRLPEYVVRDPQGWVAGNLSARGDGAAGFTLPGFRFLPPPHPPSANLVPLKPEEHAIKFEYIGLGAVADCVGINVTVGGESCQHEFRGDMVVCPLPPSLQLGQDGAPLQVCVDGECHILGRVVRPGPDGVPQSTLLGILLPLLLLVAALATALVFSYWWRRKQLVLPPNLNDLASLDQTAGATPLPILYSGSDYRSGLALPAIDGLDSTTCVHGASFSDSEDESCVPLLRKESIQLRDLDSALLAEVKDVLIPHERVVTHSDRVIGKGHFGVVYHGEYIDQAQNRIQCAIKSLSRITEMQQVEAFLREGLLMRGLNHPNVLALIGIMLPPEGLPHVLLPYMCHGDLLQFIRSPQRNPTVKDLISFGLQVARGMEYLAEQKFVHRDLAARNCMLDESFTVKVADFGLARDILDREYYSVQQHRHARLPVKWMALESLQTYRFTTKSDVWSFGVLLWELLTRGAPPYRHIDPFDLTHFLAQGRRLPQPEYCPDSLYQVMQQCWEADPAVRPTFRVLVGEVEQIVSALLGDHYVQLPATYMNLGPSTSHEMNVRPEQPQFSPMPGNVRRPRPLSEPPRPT
Method: In order to measure the inhibitory activity of each of the compounds of Examples against RON, the IC50 of each of the compounds was measured using Time-resolved fluorescence energy transfer (TR-FRET).
as §1, with “a 1× kinase” for “a 1×kinase”, “7.4), 0.01%” for “7.4), 0.05% BSA, 0.005%”, “Tween-20, 5” for “Tween-20, 1”, “mM Na3VO4, 2 mM EGTA, 10” for “mM MnCl2, 20”
The RON protein was diluted to a concentration of 49.3 nM in a RON storage buffer (50 mM Tris-HCl (pH 7.5), 150 mM NaCl, 0.5 mM EDTA, 0.02% Triton X-100), and then diluted again to a concentration of 0.4 nM in a 1×kinase reaction buffer. As a substrate cocktail, a RON-specific substrate mixed solution (40 uM ULight-labeled Poly GT, 100 nM ATP) was prepared at a concentration 2 times the final reaction concentration.
as §2
as §3, with “of 0.4” for “of 2”, “nM RON” for “nM cMET”, “of 30” for “of 90”, “The IC50” for “The pe50”

Sequence of cMET (P08581 25-1390): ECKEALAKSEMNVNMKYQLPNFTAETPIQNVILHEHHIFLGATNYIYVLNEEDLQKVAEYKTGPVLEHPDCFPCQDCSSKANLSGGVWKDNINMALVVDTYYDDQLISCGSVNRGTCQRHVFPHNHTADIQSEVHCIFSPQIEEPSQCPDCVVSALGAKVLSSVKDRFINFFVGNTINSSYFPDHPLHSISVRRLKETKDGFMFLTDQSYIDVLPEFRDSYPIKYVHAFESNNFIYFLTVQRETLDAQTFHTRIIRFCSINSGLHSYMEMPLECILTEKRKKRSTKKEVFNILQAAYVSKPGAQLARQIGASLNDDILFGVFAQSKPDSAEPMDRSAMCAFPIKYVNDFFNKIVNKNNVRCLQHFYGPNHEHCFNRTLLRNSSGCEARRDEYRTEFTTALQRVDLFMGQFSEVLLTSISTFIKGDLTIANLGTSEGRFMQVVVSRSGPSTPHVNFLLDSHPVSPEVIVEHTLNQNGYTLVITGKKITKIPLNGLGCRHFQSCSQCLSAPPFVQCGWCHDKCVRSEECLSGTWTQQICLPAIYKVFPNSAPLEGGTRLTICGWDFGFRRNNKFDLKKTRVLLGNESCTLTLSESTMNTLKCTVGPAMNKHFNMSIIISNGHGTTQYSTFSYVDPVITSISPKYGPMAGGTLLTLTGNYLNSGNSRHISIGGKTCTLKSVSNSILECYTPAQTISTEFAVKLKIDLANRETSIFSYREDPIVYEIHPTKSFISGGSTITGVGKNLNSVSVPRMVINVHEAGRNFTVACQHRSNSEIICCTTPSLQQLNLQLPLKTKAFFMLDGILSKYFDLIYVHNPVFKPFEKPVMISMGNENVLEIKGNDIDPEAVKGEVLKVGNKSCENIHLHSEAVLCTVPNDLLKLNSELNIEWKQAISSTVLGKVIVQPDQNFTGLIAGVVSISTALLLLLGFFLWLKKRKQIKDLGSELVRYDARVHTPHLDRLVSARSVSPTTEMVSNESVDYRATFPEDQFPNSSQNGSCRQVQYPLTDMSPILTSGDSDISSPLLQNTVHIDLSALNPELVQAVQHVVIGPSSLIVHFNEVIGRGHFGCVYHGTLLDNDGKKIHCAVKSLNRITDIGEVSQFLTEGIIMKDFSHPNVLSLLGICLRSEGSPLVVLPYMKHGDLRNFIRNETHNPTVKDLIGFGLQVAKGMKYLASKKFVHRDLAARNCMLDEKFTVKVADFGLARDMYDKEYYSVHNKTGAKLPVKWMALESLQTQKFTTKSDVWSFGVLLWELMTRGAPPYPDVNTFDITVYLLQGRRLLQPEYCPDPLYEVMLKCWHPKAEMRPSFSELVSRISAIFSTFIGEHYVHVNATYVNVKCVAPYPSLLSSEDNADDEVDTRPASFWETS

Structure (SMILES) | pIC50 [1] | pIC50 [2]
CCc1c(C(=O)Nc2ccc(Oc3ccnc(N)c3Cl)c(F)c2)cnn1-c1cncnc1 [Example 1, N-(4-((2-amino-3-chloropyridin-4-yl)oxy)-3-fluorophenyl)-5-ethyl-1-(pyrimidin-5-yl)-1H-pyrazole-4-carboxamide] | 5.30 to 6.30 | 6.30 to 7.30
Nc1nccc(Oc2ccc(NC(=O)c3cnn(-c4ccccn4)c3C(F)(F)F)cc2F)c1Cl [Example 2, N-(4-((2-amino-3-chloropyridin-4-yl)oxy)-3-fluorophenyl)-1-(pyridin-2-yl)-5-(trifluoromethyl)-1H-pyrazole-4-carboxamide] | 5.30 to 6.30 | > 7.30
Nc1nccc(Oc2ccc(NC(=O)c3cnn(-c4nc(-c5ccccc5)cs4)c3C(F)(F)F)cc2F)c1Cl [Example 3, N-(4-((2-amino-3-chloropyridin-4-yl)oxy)-3-fluorophenyl)-1-(4-phenylthiazol-2-yl)-5-(trifluoromethyl)-1H-pyrazole-4-carboxamide] | < 5.30 | < 5.30
CCc1c(C(=O)Nc2ccc(Oc3ccnc(N)c3Cl)c(F)c2)cnn1-c1ccncc1 [Example 4, N-(4-((2-amino-3-chloropyridin-4-yl)oxy)-3-fluorophenyl)-5-ethyl-1-(pyridin-4-yl)-1H-pyrazole-4-carboxamide] | < 5.30 | 5.30 to 6.30
CCc1c(C(=O)Nc2ccc(Oc3ccnc(N)c3Cl)c(F)c2)cnn1-c1cccnc1 [Example 5, N-(4-((2-amino-3-chloropyridin-4-yl)oxy)-3-fluorophenyl)-5-ethyl-1-(pyridin-3-yl)-1H-pyrazole-4-carboxamide] | 5.30 to 6.30 | 6.30 to 7.30
Nc1nccc(Oc2ccc(NC(=O)c3cnn(-c4cncnc4)c3C(F)(F)F)cc2F)c1Cl [Example 6, N-(4-((2-amino-3-chloropyridin-4-yl)oxy)-3-fluorophenyl)-1-(pyrimidin-5-yl)-5-(trifluoromethyl)-1H-pyrazole-4-carboxamide] | < 5.30 | 6.30 to 7.30
Cc1c(C(=O)Nc2ccc(Oc3ccnc(N)c3Cl)c(F)c2)cnn1-c1cncnc1 [Example 7, N-(4-((2-amino-3-chloropyridin-4-yl)oxy)-3-fluorophenyl)-5-methyl-1-(pyrimidin-5-yl)-1H-pyrazole-4-carboxamide] | < 5.30 | 6.30 to 7.30
Nc1nccc(Oc2ccc(NC(=O)c3cnn(-c4ncccc4F)c3C(F)(F)F)cc2F)c1Cl [Example 8, N-(4-((2-amino-3-chloropyridin-4-yl)oxy)-3-fluorophenyl)-1-(3-fluoropyridin-2-yl)-5-(trifluoromethyl)-1H-pyrazole-4-carboxamide] | 5.30 to 6.30 | > 7.30
Cc1cccnc1-n1ncc(C(=O)Nc2ccc(Oc3ccnc(N)c3Cl)c(F)c2)c1C(F)(F)F [Example 9, N-(4-((2-amino-3-chloropyridin-4-yl)oxy)-3-fluorophenyl)-1-(3-methylpyridin-2-yl)-5-(trifluoromethyl)-1H-pyrazole-4-carboxamide] | 5.30 to 6.30 | > 7.30
Nc1nccc(Oc2ccc(NC(=O)c3cnn(-c4ncccc4Cl)c3C(F)(F)F)cc2F)c1Cl [Example 10, N-(4-((2-amino-3-chloropyridin-4-yl)oxy)-3-fluorophenyl)-1-(3-chloropyridin-2-yl)-5-(trifluoromethyl)-1H-pyrazole-4-carboxamide] | 5.30 to 6.30 | > 7.30
Nc1nccc(Oc2ccc(NC(=O)c3cnn(-c4ncccc4C(F)(F)F)c3C(F)(F)F)cc2F)c1Cl [Example 11, N-(4-((2-amino-3-chloropyridin-4-yl)oxy)-3-fluorophenyl)-5-(trifluoromethyl)-1-(3-(trifluoromethyl)pyridin-2-yl)-1H-pyrazole-4-carboxamide] | 5.30 to 6.30 | 6.30 to 7.30
Cc1ccnc(-n2ncc(C(=O)Nc3ccc(Oc4ccnc(N)c4Cl)c(F)c3)c2C(F)(F)F)c1 [Example 12, N-(4-((2-amino-3-chloropyridin-4-yl)oxy)-3-fluorophenyl)-1-(4-methylpyridin-2-yl)-5-(trifluoromethyl)-1H-pyrazole-4-carboxamide] | 5.30 to 6.30 | 6.30 to 7.30
Nc1nccc(Oc2ccc(NC(=O)c3cnn(-c4ccc(F)cn4)c3C(F)(F)F)cc2F)c1Cl [Example 13, N-(4-((2-amino-3-chloropyridin-4-yl)oxy)-3-fluorophenyl)-1-(5-fluoropyridin-2-yl)-5-(trifluoromethyl)-1H-pyrazole-4-carboxamide] | < 5.30 | 6.30 to 7.30
Nc1nccc(Oc2ccc(NC(=O)c3cnn(-c4cc(Cl)ccn4)c3C(F)(F)F)cc2F)c1Cl [Example 14, N-(4-((2-amino-3-chloropyridin-4-yl)oxy)-3-fluorophenyl)-1-(4-chloropyridin-2-yl)-5-(trifluoromethyl)-1H-pyrazole-4-carboxamide] | < 5.30 | 6.30 to 7.30
COc1cccnc1-n1ncc(C(=O)Nc2ccc(Oc3ccnc(N)c3Cl)c(F)c2)c1C(F)(F)F [Example 15, N-(4-((2-amino-3-chloropyridin-4-yl)oxy)-3-fluorophenyl)-1-(3-methoxypyridin-2-yl)-5-(trifluoromethyl)-1H-pyrazole-4-carboxamide] | 5.30 to 6.30 | 6.30 to 7.30
Cc1ccc(-n2ncc(C(=O)Nc3ccc(Oc4ccnc(N)c4Cl)c(F)c3)c2C(F)(F)F)nc1 [Example 16, N-(4-((2-amino-3-chloropyridin-4-yl)oxy)-3-fluorophenyl)-1-(5-methylpyridin-2-yl)-5-(trifluoromethyl)-1H-pyrazole-4-carboxamide] | < 5.30 | 6.30 to 7.30
Cc1cccc(-n2ncc(C(=O)Nc3ccc(Oc4ccnc(N)c4Cl)c(F)c3)c2C(F)(F)F)n1 [Example 17, N-(4-((2-amino-3-chloropyridin-4-yl)oxy)-3-fluorophenyl)-1-(6-methylpyridin-2-yl)-5-(trifluoromethyl)-1H-pyrazole-4-carboxamide] | 5.30 to 6.30 | 6.30 to 7.30
Nc1nccc(Oc2ccc(NC(=O)c3cnn(-c4cccnc4)c3C(F)(F)F)cc2F)c1Cl [Example 18, N-(4-((2-amino-3-chloropyridin-4-yl)oxy)-3-fluorophenyl)-1-(pyridin-3-yl)-5-(trifluoromethyl)-1H-pyrazole-4-carboxamide] | 5.30 to 6.30 | 6.30 to 7.30
Nc1nccc(Oc2ccc(NC(=O)c3cnn(-c4ccncc4)c3C(F)(F)F)cc2F)c1Cl [Example 19, N-(4-((2-amino-3-chloropyridin-4-yl)oxy)-3-fluorophenyl)-1-(pyridin-4-yl)-5-(trifluoromethyl)-1H-pyrazole-4-carboxamide] | 5.30 to 6.30 | 6.30 to 7.30
Nc1nccc(Oc2ccc(NC(=O)c3cnn(-c4cccnn4)c3C(F)(F)F)cc2F)c1Cl [Example 20, N-(4-((2-amino-3-chloropyridin-4-yl)oxy)-3-fluorophenyl)-1-(pyridazin-3-yl)-5-(trifluoromethyl)-1H-pyrazole-4-carboxamide] | 5.30 to 6.30 | > 7.30
